Experimental data taken from patent US11142554B2 (MASSACHUSETTS INSTITUTE OF TECHNOLOGY, priority 2015, dated 2021).
Residues, ends and D or L forms follow the SMILES beside them.

How the values were obtained:
[1] = target: KSBcl-2; test: receptor | KSBcl-2
[2] = target: Bfl-1 (Homo sapiens, UniProt Q16548); test: receptor | Bfl-1
[3] = target: T1, Bcl-2 (Homo sapiens, UniProt P10415); test: receptor | Bcl-2
Target sequence in this assay (P10415 whole entry, looked up): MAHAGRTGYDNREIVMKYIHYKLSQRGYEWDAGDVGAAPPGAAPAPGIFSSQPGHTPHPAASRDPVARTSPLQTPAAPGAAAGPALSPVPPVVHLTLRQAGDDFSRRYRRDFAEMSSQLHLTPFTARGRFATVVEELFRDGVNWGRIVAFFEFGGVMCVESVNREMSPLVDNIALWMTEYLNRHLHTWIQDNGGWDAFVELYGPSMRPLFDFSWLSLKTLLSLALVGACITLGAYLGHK

[4] = target: T2, Bcl-xL (Homo sapiens, UniProt Q07817); test: receptor | Bcl-xL
Target sequence in this assay (Q07817 whole entry, looked up): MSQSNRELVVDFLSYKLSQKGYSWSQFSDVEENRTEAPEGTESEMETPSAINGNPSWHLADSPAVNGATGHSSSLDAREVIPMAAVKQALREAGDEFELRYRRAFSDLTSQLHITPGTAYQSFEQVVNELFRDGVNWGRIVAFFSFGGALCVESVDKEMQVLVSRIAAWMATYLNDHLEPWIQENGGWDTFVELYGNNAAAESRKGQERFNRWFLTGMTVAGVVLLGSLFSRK

[5] = target: Bcl-w (Homo sapiens, UniProt Q92843); test: receptor | Bcl-w
[6] = target: T2, Bcl-xL; test: Fluorescence anisotropy direct binding of N-terminal fluorescein peptides
Target sequence in this assay (Q07817 whole entry): as the sequence (Q07817 whole entry, looked up) above

[7] = target: T1, Bcl-2; test: as above
Target sequence in this assay (P10415 whole entry): as the sequence (P10415 whole entry, looked up) above

[8] = target: T3, Bfl-1 (Homo sapiens, UniProt Q16548); test: as above
T3 sequence (Q16548 1-175): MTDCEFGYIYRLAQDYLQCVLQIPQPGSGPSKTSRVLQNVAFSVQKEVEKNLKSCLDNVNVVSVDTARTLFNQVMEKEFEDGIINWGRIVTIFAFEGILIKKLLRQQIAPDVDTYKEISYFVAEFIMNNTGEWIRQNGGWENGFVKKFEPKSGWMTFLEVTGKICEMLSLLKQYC

[9] = test system: Pfeiffer cells; details: Pfeiffer
Method: (§1) A whole-cell BH3 profiling assay was used to test the specificity of our Mcl-1-binding peptides in several cell lines with differing dependencies on Bcl-2, Mcl-1, Bcl-xL, or Bfl-1. In this assay, permeabilized cells were treated with increasing doses of BH3 peptides, and mitochondrial outer membrane permeabilization (MOMP) was monitored using the dye JC-1 (see below). Mcl-1/Myc 2640 is an engineered murine leukemia cell line overexpressing murine Mcl-1 and Myc, and Bcl-2/Myc 2924 is a similarly engineered cell line overexpressing human Bcl-2.
(§2) Assay plates were produced by serial dilution of each peptide from 200 μM to 0.2 nM using 10-fold dilutions in DTEB (Derived from Trehalose Experimental Buffer: 135 mM trehalose, 50 mM KCl, 20 μM EDTA, 20 μM EGTA, 0.1% BSA, 5 mM succinate, 10 mM HEPES-KOH pH 7.5) containing 0.005% w/v digitonin, 10 mM 2-mercaptoethanol, 2 μM JC-1, and 20 mg mL-1 oligomycin. Triplicate wells for each peptide were made for each cell line by adding 15 μL of the peptide dilutions to each well of a black, untreated 384-well plate. Control wells containing no peptide or 20 μM FCCP (carbonyl cyanide-4(trifluoromethoxy) phenylhydrazone, a chemical uncoupler of oxidative phosphorylation) were included for zero and complete depolarization, respectively. Multiple plates were produced from the same stock and frozen at −80 ° C. for later use. Frozen plates were brought to RT prior to use, cells were suspended in DTEB at a density of 1.34×10^6 cells/mL, and 15 μL of cell suspension was added to each well of the dilution series to yield wells ranging from 0.1 nM to 100 μM peptide and 20000 cells/well. Fluorescence of JC-1 aggregates was measured at 590 nm with 545 nm excitation on a Tecan Safire2 at 5 min intervals for 3 h. The area under each signal-vs-time curve was calculated and normalized to the untreated and FCCP values to produce the percent depolarization. Curves were plotted as the log [peptide] vs percent depolarization, with sigmoidal dose—response curves fitted using Graphpad PRISM 6.

[10] = target: T4, Bcl-w (Homo sapiens, UniProt Q92843); test: Fluorescence anisotropy direct binding of N-terminal fluorescein peptides
T4 sequence (Q92843 1-193): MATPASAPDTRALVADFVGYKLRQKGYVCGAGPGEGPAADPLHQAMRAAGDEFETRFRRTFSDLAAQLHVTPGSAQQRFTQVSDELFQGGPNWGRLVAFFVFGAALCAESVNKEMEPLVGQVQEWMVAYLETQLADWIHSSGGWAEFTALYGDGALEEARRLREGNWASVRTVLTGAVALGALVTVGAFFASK

[11] = test system: MDA-MB-231 cells; details: MDA-MB-231
Method: as §1, §2

[12] = test system: Bcl-2/Myc 2924 cells; details: Bcl-2/Myc 2924
Method: as §1, §2

[13] = test system: Mcl-1/Myc 2640 cells; details: Mcl-1/Myc 2640
Method: as §1, §2

Row | Compound | Kd [1] [nM] | Kd [2] [nM] | Kd [3] [nM] | Kd [4] [nM] | Kd [5] [nM] | other results
1 | CC[C@H](C)[C@H](NC(=O)[C@H](CCC(=O)O)NC(=O)[C@H](CC(=O)O)NC(=O)CNC(=O)[C@H](CC(C)C)NC(=O)[C@H](CCCNC(=N)N)NC(=O)[C@H](CCCNC(=N)N)NC(=O)[C@H](CC(C)C)NC(=O)CNC(=O)[C@H](CCC(N)=O)NC(=O)CNC(=O)[C@H](CCSC)NC(=O)[C@H](Cc1c[nH]c2ccccc12)NC(=O)[C@@H](NC(=O)[C@H](CCC(=O)O)NC(=O)[C@@H]1CCCN1C(=O)[C@@H](N)CCCNC(=N)N)[C@@H](C)CC)C(=O)N[C@@H](CC(N)=O)C(=O)N[C@@H](C)C(=O)N[C@@H](Cc1ccc(O)cc1)C(=O)N[C@@H](Cc1ccc(O)cc1)C(=O)N[C@@H](C)C(=O)N[C@@H](CCCNC(=N)N)C(N)=O [A12] (H-RPEIWMGQGLRRLGDEINAYYAR-NH2; N-terminus and C-terminus assumed) | 4 ± 2.6 | – | – | – | – | –
2 | CC[C@H](C)[C@H](NC(=O)[C@H](CCC(=O)O)NC(=O)[C@H](CC(=O)O)NC(=O)CNC(=O)[C@H](CC(C)C)NC(=O)[C@H](CCCNC(=N)N)NC(=O)[C@H](CCC(N)=O)NC(=O)[C@H](CC(C)C)NC(=O)[C@H](CO)NC(=O)[C@H](CCC(N)=O)NC(=O)CNC(=O)[C@H](CC(C)C)NC(=O)[C@H](Cc1c[nH]c2ccccc12)NC(=O)[C@@H](NC(=O)[C@H](CCC(=O)O)NC(=O)[C@@H]1CCCN1C(=O)[C@@H](N)CCCNC(=N)N)[C@@H](C)CC)C(=O)N[C@@H](CC(N)=O)C(=O)N[C@@H](C)C(=O)N[C@@H](Cc1ccc(O)cc1)C(=O)N[C@@H](Cc1ccc(O)cc1)C(=O)N[C@@H](C)C(=O)N[C@@H](CCCNC(=N)N)C(N)=O [B3] (H-RPEIWLGQSLQRLGDEINAYYAR-NH2; N-terminus and C-terminus assumed) | 1.43 ± 1.39 | – | – | – | – | –
3 | CC[C@H](C)[C@H](NC(=O)[C@H](CCCNC(=N)N)NC(=O)[C@H](CCCNC(=N)N)NC(=O)[C@H](CC(C)C)NC(=O)[C@H](CCC(=O)O)NC(=O)[C@H](CCC(N)=O)NC(=O)[C@@H](NC(=O)[C@@H](NC(=O)[C@H](Cc1c[nH]c2ccccc12)NC(=O)[C@@H](NC(=O)[C@H](CCC(=O)O)NC(=O)[C@@H]1CCCN1C(=O)[C@@H](N)CCCNC(=N)N)[C@@H](C)CC)[C@@H](C)CC)[C@@H](C)O)C(=O)NCC(=O)N[C@@H](CC(=O)O)C(=O)N[C@@H](CCC(=O)O)C(=O)N[C@@H](Cc1ccccc1)C(=O)N[C@@H](CC(N)=O)C(=O)N[C@@H](C)C(=O)N[C@@H](Cc1ccc(O)cc1)C(=O)N[C@@H](Cc1ccc(O)cc1)C(=O)N[C@@H](C)C(=O)N[C@@H](CCCNC(=N)N)C(N)=O [Bim_A2eT] | – | 31 ± 6.8 | 43 ± 12 | 17 ± 4.8 | 39 ± 9.4 | –
4 | CC[C@H](C)[C@H](NC(=O)[C@H](CCCNC(=N)N)NC(=O)[C@H](CCCNC(=N)N)NC(=O)[C@H](CC(C)C)NC(=O)[C@H](CCC(=O)O)NC(=O)[C@H](CCC(N)=O)NC(=O)[C@@H](NC(=O)[C@H](CCSC)NC(=O)[C@H](Cc1c[nH]c2ccccc12)NC(=O)[C@@H](NC(=O)[C@H](CCC(=O)O)NC(=O)[C@@H]1CCCN1C(=O)[C@@H](N)CCCNC(=N)N)[C@@H](C)CC)[C@@H](C)O)C(=O)NCC(=O)N[C@@H](CC(=O)O)C(=O)N[C@@H](CCC(=O)O)C(=O)N[C@@H](Cc1ccccc1)C(=O)N[C@@H](CC(N)=O)C(=O)N[C@@H](C)C(=O)N[C@@H](Cc1ccc(O)cc1)C(=O)N[C@@H](Cc1ccc(O)cc1)C(=O)N[C@@H](C)C(=O)N[C@@H](CCCNC(=N)N)C(N)=O [Bim_A2eT_I2dM] | – | 150 ± 69 | 210 ± 71 | 83 ± 53 | 260 ± 52 | –
5 | CC[C@H](C)[C@H](NC(=O)[C@H](CCC(=O)O)NC(=O)[C@@H]1CCCN1C(=O)[C@@H](N)CCCNC(=N)N)C(=O)N[C@@H](Cc1c[nH]c2ccccc12)C(=O)N[C@H](C(=O)N[C@H](C(=O)N[C@@H](CCC(N)=O)C(=O)N[C@@H](CCC(=O)O)C(=O)N[C@@H](CC(C)C)C(=O)N[C@@H](CCCNC(=N)N)C(=O)N[C@@H](CCCNC(=N)N)C(=O)N[C@@H](CC(C)C)C(=O)NCC(=O)N[C@@H](CC(=O)O)C(=O)N[C@@H](CCC(=O)O)C(=O)N[C@@H](Cc1ccccc1)C(=O)N[C@@H](CC(N)=O)C(=O)N[C@@H](C)C(=O)N[C@@H](Cc1ccc(O)cc1)C(=O)N[C@@H](Cc1ccc(O)cc1)C(=O)N[C@@H](C)C(=O)N[C@@H](CCCNC(=N)N)C(N)=O)[C@@H](C)O)[C@@H](C)CC [Bim_A2eT_I3dL] | – | 120 ± 27 | 37 ± 14 | 7.6 ± 3.8 | 12 ± 2.6 | –
6 | CC[C@H](C)[C@H](NC(=O)[C@H](CCC(=O)O)NC(=O)[C@H](CC(=O)O)NC(=O)CNC(=O)[C@H](CC(C)C)NC(=O)[C@H](CCCNC(=N)N)NC(=O)[C@H](CCC(N)=O)NC(=O)[C@H](CC(C)C)NC(=O)[C@H](Cc1c[nH]cn1)NC(=O)[C@H](CCC(N)=O)NC(=O)[C@@H](NC(=O)[C@H](CC(C)C)NC(=O)[C@H](Cc1c[nH]c2ccccc12)NC(=O)[C@@H](NC(=O)[C@H](CCC(=O)O)NC(=O)[C@@H]1CCCN1C(=O)[C@@H](N)CCCNC(=N)N)[C@@H](C)CC)[C@@H](C)O)C(=O)N[C@@H](CC(N)=O)C(=O)N[C@@H](C)C(=O)N[C@@H](Cc1ccc(O)cc1)C(=O)N[C@@H](Cc1ccc(O)cc1)C(=O)N[C@@H](C)C(=O)N[C@@H](CCCNC(=N)N)C(N)=O [MS3] | – | 790 ± 140 | – | – | 340 ± 69 | –
7 | CC[C@H](C)[C@H](NC(=O)[C@H](CCC(=O)O)NC(=O)[C@H](CC(=O)O)NC(=O)CNC(=O)[C@H](CC(C)C)NC(=O)[C@H](CCCNC(=N)N)NC(=O)[C@H](CCC(N)=O)NC(=O)[C@H](CC(C)C)NC(=O)[C@H](Cc1c[nH]cn1)NC(=O)[C@H](CCC(N)=O)NC(=O)[C@@H](NC(=O)[C@H](CC(C)C)NC(=O)[C@H](Cc1c[nH]c2ccccc12)NC(=O)[C@@H](NC(=O)[C@H](CCC(=O)O)NC(=O)[C@@H]1CCCN1C(=O)[C@H](CCCNC(=N)N)NC(C)=O)[C@@H](C)CC)[C@@H](C)O)C(=O)N[C@@H](CC(N)=O)C(=O)N[C@@H](C)C(=O)N[C@@H](Cc1ccc(O)cc1)C(=O)N[C@@H](Cc1ccc(O)cc1)C(=O)N[C@@H](C)C(=O)N[C@@H](CCCNC(=N)N)C(N)=O [MS3] | – | – | – | – | – | binding affinity to Bcl-xL (in words) [6]: micromolar affinity; binding affinity to Bcl-2 (in words) [7]: micromolar affinity; binding affinity to Bfl-1 (in words) [8]: several-hundred nanomolar affinity; depolarization response (in words) [9]: stronger response in Pfeiffer than MS1 or MS2; binding affinity to Bcl-w (in words) [10]: several-hundred nanomolar affinity
8 | RPEIWITQGLRRIGDEFNAYYAR [Bim_A2eT_E2gG] | – | – | – | – | – | depolarization response (in words) [9]: depolarization response intermediate to that of Bim and MS1; depolarization response (in words) [11]: depolarization response intermediate to that of Bim and MS1; depolarization response (in words) [12]: depolarization response intermediate to that of Bim and MS1; depolarization response (in words) [13]: strong depolarization response
9 | RPEIWLTQSLQRLGDEINAYYAR [MS2] | < 1 | – | – | – | – | –
10 | RPEIWMTQGLRRLGDEINAYYAR [MS1] | 2.9 ± 0.68 | – | – | – | – | –
